Data on four compounds can be found in PubChem BioAssay AID1259407 (Chemical Carcinogenesis Research Information System (CCRIS), 2018).

The structures appear in SMILES notation. Activity calls are given as the source filed them. No rule for the calls is given here.

The subject of this series is CCRIS mutagenicity, Ames/micronucleus/aberration tests. Briefly: CCRIS mutagenicity studies.
[1] abbreviates: Test System: AMES SALMONELLA TYPHIMURIUM, Strain/Indicator: TA98, Metabolic Activation: NONE, Method: PREINCUBATION
Setting [2] is: Test System: AMES SALMONELLA TYPHIMURIUM, Strain/Indicator: TA98, Metabolic Activation: NONE, Method: STANDARD PLATE.
Setting [3] is: Test System: AMES SALMONELLA TYPHIMURIUM, Strain/Indicator: TA98, Metabolic Activation: RAT, LIVER, S-9, AROCLOR 1254, Method: STANDARD PLATE.
The mark [4] stands for this setting: Test System: AMES SALMONELLA TYPHIMURIUM, Strain/Indicator: TA100, Metabolic Activation: NONE, Method: PREINCUBATION
Setting [5] is: Test System: AMES SALMONELLA TYPHIMURIUM, Strain/Indicator: TA100, Metabolic Activation: NONE, Method: STANDARD PLATE.
Where [6] appears, read: Test System: AMES SALMONELLA TYPHIMURIUM, Strain/Indicator: TA1535, Metabolic Activation: NONE, Method: PREINCUBATION

Take `Oc1c(Cl)c(Cl)c(Cl)c(Cl)c1Cl`: the mutagenic call is “inactive; negative” (End Point: IN VITRO CHROMOSOMAL ABERRATIONS, Test System: CHINESE HAMSTER OVARY CELLS, Metabolic Activation: NONE); “inactive; negative” (Test System: AMES SALMONELLA TYPHIMURIUM, Strain/Indicator: TA97A, Metabolic Activation: NONE, Method: STANDARD PLATE); “inactive; negative” (Test System: AMES SALMONELLA TYPHIMURIUM, Strain/Indicator: TA97A, Metabolic Activation: RAT LIVER S-9, AROCLOR 1254, Method: STANDARD PLATE); “inactive; negative” (Test System: AMES SALMONELLA TYPHIMURIUM, Strain/Indicator: TA98, Metabolic Activation: HAMSTER, LIVER, S-9, AROCLOR 1254, Method: PREINCUBATION); “inactive; negative” under setting [1]; “inactive; negative” under setting [2]. The mutagenic call (Test System: AMES SALMONELLA TYPHIMURIUM, Strain/Indicator: TA98, Metabolic Activation: RAT LIVER S-9, AROCLOR 1254, Method: STANDARD PLATE) is “inactive; negative”; the mutagenic call (Test System: AMES SALMONELLA TYPHIMURIUM, Strain/Indicator: TA98, Metabolic Activation: RAT, LIVER, S-9, AROCLOR 1254, Method: PREINCUBATION) was “inactive; negative”; the mutagenic call under setting [3] was “active; positive”; the mutagenic call (Test System: AMES SALMONELLA TYPHIMURIUM, Strain/Indicator: TA100, Metabolic Activation: HAMSTER, LIVER, S-9, AROCLOR 1254, Method: PREINCUBATION) was “inactive; negative”; the mutagenic call under setting [4] was “inactive; negative”; the mutagenic call under setting [5] is “inactive; negative”. Moreover, the mutagenic call reads like this: (Test System: AMES SALMONELLA TYPHIMURIUM, Strain/Indicator: TA100, Metabolic Activation: RAT LIVER S-9, AROCLOR 1254, Method: STANDARD PLATE) “inactive; negative”; (Test System: AMES SALMONELLA TYPHIMURIUM, Strain/Indicator: TA100, Metabolic Activation: RAT, LIVER, S-9, AROCLOR 1254, Method: PREINCUBATION) “inactive; negative”; (Test System: AMES SALMONELLA TYPHIMURIUM, Strain/Indicator: TA1535, Metabolic Activation: HAMSTER, LIVER, S-9, AROCLOR 1254, Method: PREINCUBATION) “inactive; negative”; under setting [6], “inactive; negative”; (Test System: AMES SALMONELLA TYPHIMURIUM, Strain/Indicator: TA1535, Metabolic Activation: RAT, LIVER, S-9, AROCLOR 1254, Method: PREINCUBATION) “inactive; negative”; (Test System: AMES SALMONELLA TYPHIMURIUM, Strain/Indicator: TA1537, Metabolic Activation: HAMSTER, LIVER, S-9, AROCLOR 1254, Method: PREINCUBATION) “inactive; negative”. In addition, the mutagenic call is, setting by setting: (Test System: AMES SALMONELLA TYPHIMURIUM, Strain/Indicator: TA1537, Metabolic Activation: NONE, Method: PREINCUBATION) “inactive; negative”; (Test System: AMES SALMONELLA TYPHIMURIUM, Strain/Indicator: TA1537, Metabolic Activation: RAT, LIVER, S-9, AROCLOR 1254, Method: PREINCUBATION) “inactive; negative”; (Test System: CHINESE HAMSTER V-79, Strain/Indicator: V-79/6-THIOGUANINE, Metabolic Activation: NONE, Method: STANDARD PLATE) “inactive; negative”; (Test System: CHINESE HAMSTER V-79, Strain/Indicator: V-79/6-THIOGUANINE, Metabolic Activation: PRIMARY RAT HEPATOCYTES, Method: STANDARD PLATE) “inactive; negative”.
Consider `CC(=O)OCCCCCCCCONC(=O)c1ccccc1`, for which the mutagenic call is, setting by setting: under setting [2], “active; positive”; under setting [5], “active; positive”; (Test System: AMES SALMONELLA TYPHIMURIUM, Strain/Indicator: TA100, Metabolic Activation: RAT, S-9, AROCLOR, Method: STANDARD PLATE) “inactive; negative”.
Regarding `O=C(O)c1cc2ccccc2cc1O`, the mutagenic call (End Point: In vitro chromosomal aberrations, Test System: Chinese hamster lung (CHL/IU) cells, Metabolic Activation: Rat, Liver, S9, Phenobarbital and 5,6-benzoflavone) was “active; positive (structural changes and ploidy). precipitation of test chemical at 1.0”; the mutagenic call under setting [1] is “inactive; negative”; the mutagenic call (Test System: AMES SALMONELLA TYPHIMURIUM, Strain/Indicator: TA98, Metabolic Activation: RAT LIVER S-9, PHENOBARBITAL AND BETA-NAPHTHOFLAVONE, Method: PREINCUBATION) is “inactive; negative”; the mutagenic call (Test System: AMES SALMONELLA TYPHIMURIUM, Strain/Indicator: TA98, Metabolic Activation: RAT, LIVER, S-9, KC 500, Method: PREINCUBATION) was “inactive; negative”; the mutagenic call under setting [4] is “inactive; negative”; the mutagenic call (Test System: AMES SALMONELLA TYPHIMURIUM, Strain/Indicator: TA100, Metabolic Activation: RAT LIVER S-9, PHENOBARBITAL AND BETA-NAPHTHOFLAVONE, Method: PREINCUBATION) was “inactive; negative”. The mutagenic call is, setting by setting: (Test System: AMES SALMONELLA TYPHIMURIUM, Strain/Indicator: TA100, Metabolic Activation: RAT, LIVER, S-9, KC 500, Method: PREINCUBATION) “inactive; negative”; under setting [6], “inactive; negative”; (Test System: AMES SALMONELLA TYPHIMURIUM, Strain/Indicator: TA1535, Metabolic Activation: RAT LIVER S-9, PHENOBARBITAL AND BETA-NAPHTHOFLAVONE, Method: PREINCUBATION) “inactive; negative”; (Test System: AMES SALMONELLA TYPHIMURIUM, Strain/Indicator: TA1535, Metabolic Activation: RAT, LIVER, S-9, KC 500, Method: PREINCUBATION) “inactive; negative”; (Test System: AMES SALMONELLA TYPHIMURIUM, Strain/Indicator: TA1537, Metabolic Activation: RAT LIVER S-9, PHENOBARBITAL AND BETA-NAPHTHOFLAVONE, Method: PREINCUBATION) “inactive; negative”; (Test System: AMES SALMONELLA TYPHIMURIUM, Strain/Indicator: TA1537, Metabolic Activation: RAT, LIVER, S-9, KC 500, Method: PREINCUBATION) “inactive; negative”. Also, the mutagenic call (Test System: AMES SALMONELLA TYPHIMURIUM, Strain/Indicator: TA1538, Metabolic Activation: NONE, Method: PREINCUBATION) was “inactive; negative”; the mutagenic call (Test System: AMES SALMONELLA TYPHIMURIUM, Strain/Indicator: TA1538, Metabolic Activation: RAT LIVER S-9, PHENOBARBITAL AND BETA-NAPHTHOFLAVONE, Method: PREINCUBATION) was “inactive; negative”; the mutagenic call (Test System: AMES SALMONELLA TYPHIMURIUM, Strain/Indicator: TA1538, Metabolic Activation: RAT, LIVER, S-9, KC 500, Method: PREINCUBATION) is “inactive; negative”; the mutagenic call (Test System: E. COLI, Strain/Indicator: WP2UVRA/PKM101, Metabolic Activation: NONE, Method: PREINCUBATION) was “inactive; negative”; the mutagenic call (Test System: E. COLI, Strain/Indicator: WP2UVRA/PKM101, Metabolic Activation: RAT LIVER S-9, PHENOBARBITAL AND BETA-NAPHTHOFLAVONE, Method: PREINCUBATION) was “inactive; negative”; the mutagenic call (Test System: E. COLI, Strain/Indicator: WP2 UVRA, Metabolic Activation: NONE, Method: PREINCUBATION) was “inactive; negative”. The mutagenic call reads like this: (Test System: E. COLI, Strain/Indicator: WP2UVRA, Metabolic Activation: NONE, Method: PREINCUBATION) “inactive; negative”; (Test System: E. COLI, Strain/Indicator: WP2UVRA, Metabolic Activation: RAT LIVER S-9, PHENOBARBITAL AND BETA-NAPHTHOFLAVONE, Method: PREINCUBATION) “inactive; negative”; (Test System: E. COLI, Strain/Indicator: WP2 UVRA, Metabolic Activation: RAT, LIVER, S-9, KC 500, Method: PREINCUBATION) “inactive; negative”.
For the compound `Fc1ccccn1`, the mutagenic call is “inactive; negative” (Test System: AMES SALMONELLA TYPHIMURIUM, Strain/Indicator: TA97, Metabolic Activation: NONE, Method: STANDARD PLATE); “inactive; negative” (Test System: AMES SALMONELLA TYPHIMURIUM, Strain/Indicator: TA97, Metabolic Activation: RAT, LIVER, S-9, AROCLOR 1254, Method: STANDARD PLATE); “inactive; negative” under setting [2]; “active; positive” under setting [3]; “inactive; negative” under setting [5]; “inactive; negative” (Test System: AMES SALMONELLA TYPHIMURIUM, Strain/Indicator: TA100, Metabolic Activation: RAT, LIVER, S-9, AROCLOR 1254, Method: STANDARD PLATE). Moreover, the mutagenic call reads like this: (Test System: AMES SALMONELLA TYPHIMURIUM, Strain/Indicator: TA102, Metabolic Activation: NONE, Method: STANDARD PLATE) “inactive; negative”; (Test System: AMES SALMONELLA TYPHIMURIUM, Strain/Indicator: TA102, Metabolic Activation: RAT, LIVER, S-9, AROCLOR 1254, Method: STANDARD PLATE) “inactive; negative”.
